Converted amounts (≈) assume the structure as drawn. Values belong to the molecule of their own block, whether it stands above or below them.
Assays:
A2 receptor = conditions: relative to 8-phenyltheophylline; cited from earlier work
A1 receptor = conditions: relative to 8-phenyltheophylline; cited from earlier work
adenosine receptor = conditions: background; read-out: Ki-values as adenosine antagonists; cited from earlier work
[1] = target: Nethylcarboxamidoadenosine-stimulated adenylat cyclase; conditions: PC12 cell membranes; printed in brackets in the A2 Ki column; ref 10b; read-out: Kb for inhibition of N-ethylcarboxamidoadenosine-stimulated adenylate cyclase; cited from earlier work
[2] = Limit of solubility in the A2 binding assay; type: physicochemical; conditions: binding assay medium
From the text: Thus, compound 22 is >285-fold A1 -selective in these binding assays.

A2 adenosine receptors = A2 adenosine receptors (Rattus norvegicus, UniProt P30543); assay: Inhibition of binding of [3H]N-ethylcarboxamidoadenosine to A2-adenosine receptors in rat striatal membranes
Method: Affinity at A1 - and A2 -adenosine receptors was measured in competitive binding assays, using as radioligands [^3 H]N^6 -phenylisopropyladenosine^17 (with rat cerebral cortical membranes) and [^3 H]5'-N-ethylcarboxamidoadenosine (with rat striatal membranes),^18 respectively.
N^6 -Cyclopentyladenosine was present at 50 nM to inhibit binding of the ligand at A1 -adenosine receptors. Inhibition of binding by a range of concentrations of xanthines was assessed in triplicate in at least three separate experiments. IC50 -values were converted to Ki-values by the method of Bruns et al,^18 using a conversion factor derived from the affinity of [^3 H]N-ethylcarboxamidoadenosine at A2 receptors and the Cheng-Prusoff equation.^19

A1 adenosine receptors = target: T1, A1 adenosine receptors (Rattus norvegicus, UniProt P25099); assay: Inhibition of binding of [3H]N6-phenylisopropyladenosine to A1 adenosine receptors in rat cerebral cortical membranes
T1 construct: A1 adenosine receptors in rat cerebral cortical membranes; from tissue; host or cells: rat cerebral cortex membranes
T1 sequence (P25099 1-326): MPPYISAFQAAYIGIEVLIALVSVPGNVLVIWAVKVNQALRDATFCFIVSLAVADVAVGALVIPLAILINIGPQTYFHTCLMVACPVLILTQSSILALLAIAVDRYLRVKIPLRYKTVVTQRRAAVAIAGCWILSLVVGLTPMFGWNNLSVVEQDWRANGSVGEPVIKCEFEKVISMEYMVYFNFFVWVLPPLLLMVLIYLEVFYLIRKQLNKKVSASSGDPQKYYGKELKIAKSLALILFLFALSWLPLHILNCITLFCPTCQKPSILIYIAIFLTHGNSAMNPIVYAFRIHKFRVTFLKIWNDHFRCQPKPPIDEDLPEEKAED

Sequence of A2 adenosine receptors (P30543 whole entry): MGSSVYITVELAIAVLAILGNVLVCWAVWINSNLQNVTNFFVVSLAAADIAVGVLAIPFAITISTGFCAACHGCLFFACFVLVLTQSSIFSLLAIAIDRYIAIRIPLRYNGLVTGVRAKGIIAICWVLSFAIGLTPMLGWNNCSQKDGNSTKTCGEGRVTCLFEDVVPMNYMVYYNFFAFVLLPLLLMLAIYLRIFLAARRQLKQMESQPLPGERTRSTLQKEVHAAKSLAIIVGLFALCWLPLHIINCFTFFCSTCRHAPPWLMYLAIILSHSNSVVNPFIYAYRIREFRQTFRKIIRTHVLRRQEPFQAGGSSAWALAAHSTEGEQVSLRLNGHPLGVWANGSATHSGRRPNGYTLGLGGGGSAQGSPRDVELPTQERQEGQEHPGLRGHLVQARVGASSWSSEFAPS

Structure (SMILES): Cn1c(=O)c2sc(-c3ccccc3)nc2n(C)c1=O
- reduction of activity at an A2 receptor by thio-substitution (A2 receptor): ~100 fold
- reduction of activity at an A1 receptor by thio-substitution (A1 receptor): 1000 fold

Structure (SMILES): Cn1c(=O)c2[nH]cnc2n(C)c1=O [Compound 1a, theophylline]
- Ki (adenosine receptor): ≥ 10000 nM

Structure (SMILES): CCCn1c(=O)c2[nH]c(-c3ccc(OCC(=O)NCCNC)cc3)nc2n(CCC)c1=O [Compound 32]
- Kb [1]: 9.3 ± 2.1 nM

- solubility [2]: ~10 µM (≈ 3.34 µg/mL)
- Ki (A2 adenosine receptors): > 10000 nM
- A1-selectivity (A1 adenosine receptors; A1 (rat cortex) versus A2 (rat striatum) binding): > 285 fold
- A1-selectivity, in words (A1 adenosine receptors; A1 versus A2 binding, relative to oxygen analogs): a greater margin of A1 -selectivity
- Ki (A1 adenosine receptors; rat cortical membranes, [3H]PIA, single determination in triplicate or average of three ± S.E.M., read-out: Ki A1-receptors): 35.1 ± 6 nM
- Ki (A2)/Ki (A1) (A1 adenosine receptors; ratio of A2 (rat striatum) to A1 (rat cortex) Ki): > 285
Structure (SMILES): CCCn1c(=O)c2[nH]c(-c3cccs3)nc2n(CCC)c1=S [Compound 22, 1,3-Dipropyl-8-(2-thienyl)-2-thioxanthine]
- A2 affinity/potency, in words (A2 adenosine receptors; relative to the analogs named in the text): did not bind measurably to A2 -receptors at its limit of solubility
